Values quoted from earlier work in patent publication US7452871B2, “Compositions and methods for treating mammals with modified alginates and modified pectins” (EcoNugenics, Inc., priority 1999, dated 2008).

How the values were obtained:
[1] = rats
[2] = rats; remark: listed apart in the source
cancer metastasis = conditions: modified citrus pectin: oral administration

Substance	blood glucose levels after glucose administration [1]	cholesterol excretion [2]	suppressing or preventing metastases (cancer metastasis)
AG-10	inhibited blood glucose levels from rising	enhanced cholesterol secretion	–
AG-270	inhibited blood glucose levels from rising	enhanced cholesterol secretion	–
modified citrus pectin	–	–	may be effective in suppressing or preventing metastases
